Data as given in ChEMBL document CHEMBL1201862, “PubChem BioAssay data set” (2004).
The source made the active and inactive calls.

Experiments:
[1] = cytotoxicity in OVCAR8 ovarian cancer cells, dose response, PAX8 project, cell-based, plate reader, dry powder samples (AID 743197); type: functional; settings: OVCAR-8
[2] = NIH:OVCAR-3 ovarian cancer cell cytotoxicity, dose response, PAX8 inhibitor project, plate reader, dry powder samples (AID 743044); type: functional, cell-based
[3] = IGROV1 ovarian cancer cell cytotoxicity, dose response, PAX8 inhibitor project, plate reader, dry powder samples (AID 743043); type: functional, cell-based; settings: IGROV-1
[4] = IOSE-T80 ovarian epithelial cell cytotoxicity, dose response, cytotoxicity control for PAX8 inhibitor project, plate reader, dry powder samples (AID 743045); type: functional, cell-based
[5] = inhibitors of PGC1a acetylation in cells, dose response, cell-based, cherry-picked samples (AID 720514); type: functional;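 also: potency may reflect raised or lowered acetylation signal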
Paired box protein Pax-8 = Paired box protein Pax-8 (Homo sapiens, UniProt Q06710); assay: inhibitors of PAX8-driven TPO luciferase reporter, dose response, RMG-I cells, cherry-pick (AID 687027); type: functional, cell-based;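 also: luciferase reporter driven by Pax8 target thyroperoxidase promoter measured by SteadyGlo luminescence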
Sequence of Paired box protein Pax-8 (Q06710 whole entry): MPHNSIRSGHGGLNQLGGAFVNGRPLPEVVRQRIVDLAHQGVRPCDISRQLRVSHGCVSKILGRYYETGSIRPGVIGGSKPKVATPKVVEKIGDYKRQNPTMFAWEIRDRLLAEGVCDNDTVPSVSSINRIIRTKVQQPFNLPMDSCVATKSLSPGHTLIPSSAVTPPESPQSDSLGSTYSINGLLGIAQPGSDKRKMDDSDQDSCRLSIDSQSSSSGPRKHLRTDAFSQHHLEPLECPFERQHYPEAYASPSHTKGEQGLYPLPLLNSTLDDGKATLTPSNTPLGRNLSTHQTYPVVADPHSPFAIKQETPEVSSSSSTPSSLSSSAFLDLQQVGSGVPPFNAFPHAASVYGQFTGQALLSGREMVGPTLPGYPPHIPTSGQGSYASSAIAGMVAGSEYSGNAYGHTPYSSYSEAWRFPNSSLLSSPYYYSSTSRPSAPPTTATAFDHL

[6] = A2780 ovarian cancer cell cytotoxicity, dose response, cytotoxicity control, plate reader, dry powder samples (AID 743046); type: functional, cell-based
[7] = target: RNA-editing ligase 1, mitochondrial (Trypanosoma brucei brucei, UniProt P86926); assay: TbREL1 ligase inhibitors, dose response, biochemical, fluorescence, Trypanosoma brucei (AID 1117295); type: functional
Sequence of RNA-editing ligase 1, mitochondrial (P86926 whole entry): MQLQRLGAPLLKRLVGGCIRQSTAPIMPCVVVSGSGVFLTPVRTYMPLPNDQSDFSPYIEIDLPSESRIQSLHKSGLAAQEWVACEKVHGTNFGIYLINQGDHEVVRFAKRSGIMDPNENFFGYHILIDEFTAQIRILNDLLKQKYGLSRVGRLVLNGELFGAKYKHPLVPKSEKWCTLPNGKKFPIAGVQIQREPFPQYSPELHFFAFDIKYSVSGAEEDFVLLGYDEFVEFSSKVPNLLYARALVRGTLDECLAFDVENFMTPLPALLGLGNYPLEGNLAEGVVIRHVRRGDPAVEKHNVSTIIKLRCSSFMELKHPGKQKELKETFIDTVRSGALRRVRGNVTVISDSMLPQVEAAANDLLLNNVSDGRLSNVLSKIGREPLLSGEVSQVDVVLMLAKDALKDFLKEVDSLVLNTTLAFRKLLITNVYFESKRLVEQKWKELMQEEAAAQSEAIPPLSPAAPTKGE

[8] = target: T1, Type-1 angiotensin II receptor (Homo sapiens, UniProt P30556); assay: AT1 receptor antagonists, dose response, selectivity assay for APJ receptor antagonist project, cell-based, uHTS hits (AID 463214); type: functional;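 also: antagonist potency against angiotensin II stimulated AT1 response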
T1 sequence (P30556 whole entry): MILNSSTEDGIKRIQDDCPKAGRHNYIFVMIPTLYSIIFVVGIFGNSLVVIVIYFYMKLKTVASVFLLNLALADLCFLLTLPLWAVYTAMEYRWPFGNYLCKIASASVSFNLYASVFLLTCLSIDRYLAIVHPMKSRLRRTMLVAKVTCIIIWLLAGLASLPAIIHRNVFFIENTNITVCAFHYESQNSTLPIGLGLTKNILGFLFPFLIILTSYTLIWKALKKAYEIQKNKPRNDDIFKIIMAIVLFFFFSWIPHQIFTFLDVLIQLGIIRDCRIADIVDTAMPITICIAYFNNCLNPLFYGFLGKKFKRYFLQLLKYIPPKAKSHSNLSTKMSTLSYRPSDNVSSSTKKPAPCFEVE

[9] = test system: Streptococcus sp. 'group A'; assay: growth inhibition of control SK(-) GAS strain, dose response, counter-screen for streptokinase expression inhibitor project, luminescence, kanamycin, BacTiterGlo, confirmation (AID 1900); type: functional, organism-based
[10] = Artemis endonuclease inhibitor potency, dose response, biochemical, fluorescence intensity (AID 720701); type: functional;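 also: Artemis endonuclease enzyme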
Streptococcus = assay: Group A Streptococcus viability loss, dose response, counter-screen for streptokinase expression inhibitor project, luminescence, BacTiterGlo (AID 1915); type: functional, organism-based;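 also: potency for reduction of bacterial viability or growth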
BJ [11] = assay: cytotoxicity toward BJ-TERT-LT-ST fibroblasts, dose response, cell-based, RAS-independent, luminescence (AID 1935); type: functional; settings: Homo sapiens;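 also: BJ fibroblasts immortalized with TERT plus LT and ST oncogenes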
[12] = cytotoxicity toward DRD oncogenic fibroblasts, dose response, cell-based, non-viral oncogenic, luminescence (AID 1934); type: functional; settings: Homo sapiens
Protein RecA = target: T2, Protein RecA (Mycobacterium tuberculosis, UniProt P9WHJ3); assay: Fluorescence Cell-Free Homogeneous Dose Retest to Identify Inhibitors of RecA-Intein Splicing Activity. [Related pubchem assays (depositor defined):AID2097, AID2223, AID489010, AID492950]; type: functional
T2 sequence (P9WHJ3 whole entry): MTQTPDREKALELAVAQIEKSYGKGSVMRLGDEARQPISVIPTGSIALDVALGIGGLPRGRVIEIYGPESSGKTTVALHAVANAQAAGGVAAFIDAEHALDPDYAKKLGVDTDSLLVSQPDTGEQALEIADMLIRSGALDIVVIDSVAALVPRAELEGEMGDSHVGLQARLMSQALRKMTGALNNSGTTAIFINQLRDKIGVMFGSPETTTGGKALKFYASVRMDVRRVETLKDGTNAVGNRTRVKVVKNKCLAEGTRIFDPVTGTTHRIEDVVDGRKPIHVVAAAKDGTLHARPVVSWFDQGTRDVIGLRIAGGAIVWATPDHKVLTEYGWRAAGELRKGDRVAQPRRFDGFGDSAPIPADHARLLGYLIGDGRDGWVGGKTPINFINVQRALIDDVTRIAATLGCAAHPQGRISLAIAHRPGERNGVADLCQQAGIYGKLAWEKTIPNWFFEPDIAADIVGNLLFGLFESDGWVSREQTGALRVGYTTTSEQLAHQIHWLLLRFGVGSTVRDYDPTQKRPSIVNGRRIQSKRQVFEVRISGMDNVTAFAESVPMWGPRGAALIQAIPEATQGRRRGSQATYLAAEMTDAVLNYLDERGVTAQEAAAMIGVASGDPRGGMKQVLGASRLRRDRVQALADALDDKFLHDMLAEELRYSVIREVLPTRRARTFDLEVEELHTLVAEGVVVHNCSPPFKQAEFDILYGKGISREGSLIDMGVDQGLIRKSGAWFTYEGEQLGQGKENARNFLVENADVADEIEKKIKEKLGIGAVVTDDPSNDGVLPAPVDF

BJ [13] = assay: cytotoxicity toward BJ-TERT fibroblasts, dose response, cell-based, RAS-independent, luminescence (AID 1933); type: functional; settings: Homo sapiens
[14] = cytotoxicity toward NIH3T3 fibroblasts, dose response, counter-screen, cell-based, ATP luminescence, mouse fibroblasts (AID 2010); type: functional;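 also: cells exposed to compound for about 90 hours before reading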
INS1 = assay: beta cell apoptosis inhibitors, cytokine rescue, dose response, luminescence, retest (AID 449756); type: functional, cell-based; settings: Rattus norvegicus, INS1;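 also: cell death triggered by IL-1 beta plus TNF-alpha plus IFN-gamma mixture; protective hits raise ATP signal compared with cytokine alone wells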
Nonstructural protein 1 = Nonstructural protein 1 (Influenza A virus, UniProt Q194T2); type: functional, Influenza A virus (A/California/07/2009(H1N1))
Sequence of Nonstructural protein 1 (Q194T2 whole entry): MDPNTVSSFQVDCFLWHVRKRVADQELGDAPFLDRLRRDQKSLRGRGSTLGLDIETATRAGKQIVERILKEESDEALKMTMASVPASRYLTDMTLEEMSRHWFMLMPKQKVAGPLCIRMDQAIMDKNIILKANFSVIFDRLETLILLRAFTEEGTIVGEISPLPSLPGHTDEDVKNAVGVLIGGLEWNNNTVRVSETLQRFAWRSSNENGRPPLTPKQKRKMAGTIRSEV

Beta-galactosidase = Beta-galactosidase (Escherichia coli, UniProt Q8VNN2); assay: PubChem AID 485352; type: functional
Sequence of Beta-galactosidase (Q8VNN2 whole entry): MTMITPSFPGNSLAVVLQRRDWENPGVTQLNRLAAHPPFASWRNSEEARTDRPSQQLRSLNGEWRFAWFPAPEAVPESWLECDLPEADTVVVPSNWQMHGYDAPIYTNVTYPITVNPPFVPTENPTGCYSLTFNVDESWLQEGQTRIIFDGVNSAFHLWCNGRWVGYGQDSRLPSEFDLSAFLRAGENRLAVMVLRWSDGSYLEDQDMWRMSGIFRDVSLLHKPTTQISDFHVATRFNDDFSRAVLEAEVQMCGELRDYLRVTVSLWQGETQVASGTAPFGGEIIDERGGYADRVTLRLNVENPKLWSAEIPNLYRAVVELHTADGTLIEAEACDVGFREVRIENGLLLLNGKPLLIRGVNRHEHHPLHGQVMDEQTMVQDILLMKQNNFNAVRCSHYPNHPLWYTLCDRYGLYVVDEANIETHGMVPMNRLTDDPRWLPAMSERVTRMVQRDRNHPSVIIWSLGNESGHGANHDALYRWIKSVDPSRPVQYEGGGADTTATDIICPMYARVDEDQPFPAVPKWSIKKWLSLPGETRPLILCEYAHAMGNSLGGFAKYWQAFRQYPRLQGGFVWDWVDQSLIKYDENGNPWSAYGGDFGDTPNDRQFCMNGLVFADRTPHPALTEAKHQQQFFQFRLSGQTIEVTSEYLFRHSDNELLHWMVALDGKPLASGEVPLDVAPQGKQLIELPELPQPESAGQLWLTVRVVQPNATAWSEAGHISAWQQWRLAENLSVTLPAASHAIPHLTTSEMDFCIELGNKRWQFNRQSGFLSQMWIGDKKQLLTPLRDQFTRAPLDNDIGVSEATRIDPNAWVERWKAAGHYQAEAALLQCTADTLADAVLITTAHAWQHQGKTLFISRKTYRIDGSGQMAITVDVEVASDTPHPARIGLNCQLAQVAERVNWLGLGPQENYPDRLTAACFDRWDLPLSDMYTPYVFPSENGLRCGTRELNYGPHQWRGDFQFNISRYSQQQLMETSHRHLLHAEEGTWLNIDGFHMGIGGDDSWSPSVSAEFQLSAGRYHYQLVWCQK

[15] = inhibitors of intracellular T. cruzi replication, confirmation, NIH3T3 host cells, beta-gal luminescence (AID 2044); type: functional, cell-based;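 also: intracellular parasites grown in NIH/3T3 mouse fibroblasts as host cells; luminescent beta-galactosidase reporter signal from transgenic T. cruzi replicating inside host cells; inhibitors lower the luminescence signal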
BJ [16] = assay: cells; type: functional, cell-based; settings: Homo sapiens
[17] = target: T3, Replicative DNA helicase DnaB (Mycobacterium tuberculosis, UniProt P9WMR3); assay: DnaB intein splicing inhibitors, dose response, biochemical, cell-free fluorescence (AID 449749); type: functional
T3 sequence (P9WMR3 whole entry): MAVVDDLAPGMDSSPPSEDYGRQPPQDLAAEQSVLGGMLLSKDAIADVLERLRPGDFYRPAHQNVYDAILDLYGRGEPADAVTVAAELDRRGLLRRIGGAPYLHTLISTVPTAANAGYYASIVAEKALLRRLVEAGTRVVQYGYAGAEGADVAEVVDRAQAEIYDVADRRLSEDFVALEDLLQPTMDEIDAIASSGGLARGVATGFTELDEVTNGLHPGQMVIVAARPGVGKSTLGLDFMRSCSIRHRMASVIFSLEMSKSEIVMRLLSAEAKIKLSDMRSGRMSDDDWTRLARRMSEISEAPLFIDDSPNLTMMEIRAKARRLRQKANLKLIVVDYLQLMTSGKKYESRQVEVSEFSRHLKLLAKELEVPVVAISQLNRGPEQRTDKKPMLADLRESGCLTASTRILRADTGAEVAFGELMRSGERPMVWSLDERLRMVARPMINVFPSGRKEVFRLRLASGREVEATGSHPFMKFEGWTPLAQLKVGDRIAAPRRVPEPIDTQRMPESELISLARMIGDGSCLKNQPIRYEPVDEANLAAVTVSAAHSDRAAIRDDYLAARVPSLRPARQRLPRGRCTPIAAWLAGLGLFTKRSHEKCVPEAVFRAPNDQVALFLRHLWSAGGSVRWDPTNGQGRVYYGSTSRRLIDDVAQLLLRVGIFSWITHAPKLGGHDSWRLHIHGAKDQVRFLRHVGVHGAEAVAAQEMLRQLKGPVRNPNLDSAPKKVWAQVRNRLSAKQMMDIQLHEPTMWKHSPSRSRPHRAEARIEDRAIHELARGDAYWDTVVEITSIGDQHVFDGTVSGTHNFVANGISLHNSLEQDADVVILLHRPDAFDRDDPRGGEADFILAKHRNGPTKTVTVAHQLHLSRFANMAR

[18] = HepG2 cell cytotoxicity, dose response, cytotoxicity control, cherry-picked samples (AID 1159577); type: functional, cell-based
[19] = P. falciparum Dd2 growth inhibitors, dose response, SYBR Green, cherry-picked samples (AID 1159567); type: functional, cell-based
Kallikrein-7 = Kallikrein-7 (Homo sapiens, UniProt P49862); assay: Fluorescence Intensity-based biochemical primary high throughput dose response assay to identify activators of kallikrein-7 (K7) zymogen.
Sequence of Kallikrein-7 (P49862 whole entry): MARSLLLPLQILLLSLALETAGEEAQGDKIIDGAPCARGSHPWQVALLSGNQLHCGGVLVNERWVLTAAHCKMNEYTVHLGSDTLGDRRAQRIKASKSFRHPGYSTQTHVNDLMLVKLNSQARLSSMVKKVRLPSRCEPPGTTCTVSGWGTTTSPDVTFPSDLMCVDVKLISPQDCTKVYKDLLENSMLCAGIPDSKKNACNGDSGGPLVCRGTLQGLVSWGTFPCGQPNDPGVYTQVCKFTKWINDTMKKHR

[20] = HeLa cell cytotoxicity, dose response, cytotoxicity control for MgcRacGAP inhibitor project (AID 624300); type: functional
[21] = target: T4, Small ubiquitin-related modifier 1 (Homo sapiens, UniProt P63165); assay: inhibitors of SUMO1 partner interactions, dose response, biochemical, FRET (AID 624383); type: functional; settings: read-out: IC50_Mean
T4 sequence (P63165 whole entry): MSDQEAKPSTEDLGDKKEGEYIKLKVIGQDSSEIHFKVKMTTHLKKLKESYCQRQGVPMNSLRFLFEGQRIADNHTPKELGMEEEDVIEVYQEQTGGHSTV

[22] = target: Glucose-6-phosphate 1-dehydrogenase (Homo sapiens, UniProt P11413); assay: human G6PD enzyme inhibitors, dose response, selectivity assay for P. falciparum G6PD inhibitor project, biochemical, fluorescence (AID 504792); type: functional
Sequence of Glucose-6-phosphate 1-dehydrogenase (P11413 whole entry): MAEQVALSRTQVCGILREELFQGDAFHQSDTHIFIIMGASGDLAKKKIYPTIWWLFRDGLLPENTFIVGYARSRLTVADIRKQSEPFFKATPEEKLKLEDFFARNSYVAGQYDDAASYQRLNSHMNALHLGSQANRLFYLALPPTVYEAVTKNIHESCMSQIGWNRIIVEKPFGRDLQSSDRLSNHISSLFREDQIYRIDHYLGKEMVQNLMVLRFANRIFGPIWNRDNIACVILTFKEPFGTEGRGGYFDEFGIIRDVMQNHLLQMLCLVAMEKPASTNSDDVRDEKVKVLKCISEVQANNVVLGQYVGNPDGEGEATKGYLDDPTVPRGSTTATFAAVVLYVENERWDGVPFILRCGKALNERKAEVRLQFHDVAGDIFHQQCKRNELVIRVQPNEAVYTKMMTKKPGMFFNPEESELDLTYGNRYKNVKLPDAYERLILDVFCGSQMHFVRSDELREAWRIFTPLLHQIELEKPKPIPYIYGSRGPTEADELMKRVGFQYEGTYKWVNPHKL

[23] = target: Glutathione-S-transferase (Schistosoma japonicum, UniProt Q26513); assay: biotin-GST/anti-GST TR-FRET signal inhibitors, dose response, artefact control for Vif-APOBEC3G degradation inhibitor project, biochemical (AID 1117362); type: functional
Sequence of Glutathione-S-transferase (Q26513 whole entry): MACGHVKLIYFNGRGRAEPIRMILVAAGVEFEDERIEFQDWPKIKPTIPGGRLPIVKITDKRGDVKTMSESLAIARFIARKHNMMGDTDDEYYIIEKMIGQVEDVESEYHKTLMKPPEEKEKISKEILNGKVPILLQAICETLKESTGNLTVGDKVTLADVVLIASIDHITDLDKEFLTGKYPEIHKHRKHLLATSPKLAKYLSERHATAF

[24] = THP-1 cell cytotoxicity, dose response, cytotoxicity control for Vif-APOBEC3G degradation inhibitor project, THP-1 cells (AID 1117359); type: functional; settings: Human immunodeficiency virus 1, THP-1
[25] = target: T4, Small ubiquitin-related modifier 1; assay: inhibitors of SUMO1 peptide binding, dose response, biochemical, fluorescence polarization, uHTS hits (AID 624382); type: functional; settings: read-out: IC50_Mean
[26] = target: T5, Rac GTPase-activating protein 1 (Homo sapiens, UniProt Q9H0H5); assay: MgcRacGAP GTPase-activating activity inhibitors, confirmation, biochemical, ADP Hunter fluorescence, primary and confirmatory (AID 624330); type: functional
T5 sequence (Q9H0H5 whole entry): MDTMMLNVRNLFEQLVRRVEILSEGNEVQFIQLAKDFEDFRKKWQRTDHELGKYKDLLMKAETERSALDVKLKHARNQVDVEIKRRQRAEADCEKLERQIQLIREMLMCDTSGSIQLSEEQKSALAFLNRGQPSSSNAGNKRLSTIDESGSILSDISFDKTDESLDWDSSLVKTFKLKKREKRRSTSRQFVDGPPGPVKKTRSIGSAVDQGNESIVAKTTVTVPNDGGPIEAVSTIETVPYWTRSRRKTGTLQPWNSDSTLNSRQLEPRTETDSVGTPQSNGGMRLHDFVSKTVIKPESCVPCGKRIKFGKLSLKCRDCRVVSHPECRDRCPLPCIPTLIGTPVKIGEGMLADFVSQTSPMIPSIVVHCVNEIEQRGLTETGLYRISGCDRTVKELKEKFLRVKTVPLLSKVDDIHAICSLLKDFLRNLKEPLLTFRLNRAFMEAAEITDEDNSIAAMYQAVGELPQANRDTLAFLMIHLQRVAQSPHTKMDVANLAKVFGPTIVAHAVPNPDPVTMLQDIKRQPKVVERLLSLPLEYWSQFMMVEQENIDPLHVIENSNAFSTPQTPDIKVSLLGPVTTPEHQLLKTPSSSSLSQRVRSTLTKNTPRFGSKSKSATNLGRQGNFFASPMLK

[27] = target: T6, DNA repair protein RAD52 homolog (Homo sapiens, UniProt P43351); type: functional, biochemical
T6 sequence (P43351 whole entry): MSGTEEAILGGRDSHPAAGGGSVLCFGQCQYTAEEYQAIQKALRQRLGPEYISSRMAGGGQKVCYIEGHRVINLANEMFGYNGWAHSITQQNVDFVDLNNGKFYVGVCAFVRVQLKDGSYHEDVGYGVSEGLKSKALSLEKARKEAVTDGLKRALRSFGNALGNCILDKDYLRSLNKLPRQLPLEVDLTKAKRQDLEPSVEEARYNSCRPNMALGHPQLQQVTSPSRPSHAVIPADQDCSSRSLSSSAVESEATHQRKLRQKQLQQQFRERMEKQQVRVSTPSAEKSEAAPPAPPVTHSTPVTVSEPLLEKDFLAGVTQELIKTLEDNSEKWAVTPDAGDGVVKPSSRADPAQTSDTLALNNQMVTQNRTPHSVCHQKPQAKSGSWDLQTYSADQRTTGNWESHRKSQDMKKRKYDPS

N#Cc1ccc(-c2ccc([C@@H]3[C@@H]4CN(S(=O)(=O)c5ccc(-c6ccccc6)cc5)C[C@H]3N4)cc2)cc1
active: AC50 [1] 17.8 µM | AC50 [2] 28.8 µM | AC50 [3] 34.9 µM | AC50 [4] 23.3 µM | AC50 [5] 1.55 µM | AC50 (Paired box protein Pax-8) 41.9 µM | AC50 [6] 17.8 µM

Cc1cc(O)c2c(c1)C(=O)[C@@]13C(=C(O)[C@H]4C(O)[C@@H]1[C@H]1C(O)[C@@H]3C(O)=C3C(=O)c5c(O)cc(C)cc5C(=O)[C@@]314)C2=O (stereo partly specified)
active: IC50 [7] 4.1 µM

c1ccc(-c2nc(N3CCCCCC3)c3ccccc3n2)nc1
inconclusive: EC50 (BJ [11]) 50.7 µM | EC50 (Protein RecA) > 380 µM
inactive: EC50 (Beta-galactosidase) > 40 µM
active: EC50 [9] 0.947 µM | IC50 [10] 4.71 µM | EC50 (Streptococcus) 1.19 µM | EC50 [12] 21 µM | EC50 (BJ [13]) 9.59 µM | EC50 [14] 2.24 µM | AC50 (INS1) 1.8 µM | IC50 (Nonstructural protein 1) 23 µM | EC50 [15] 0.845 µM | EC50 (BJ [16]) 25.7 µM | AC50 [17] 36.2 µM
> 40 µM (not active): IC50 [8]

N#C[C@H]1[C@@H](c2ccc(C#CC3CCCC3)cc2)[C@@H](CO)N1S(=O)(=O)c1ccccc1
active: AC50 [18] 24.8 µM | AC50 [19] 3.62 µM

CO[C@@H]1CN(C)C(=O)c2ccc(NC(=O)Nc3cccc(Cl)c3)cc2OC[C@@H](C)NC[C@H]1C
active: AC50 [18] 30.3 µM | AC50 [19] 5.07 µM

COc1ccc2oc(=O)c(C(=O)N3CCN(C(=O)c4ccccc4)CC3)cc2c1
inactive: EC50 (Kallikrein-7) > 69.5 µM

Cc1cc(C)c2c(=N)c3ccccc3n(CCCCCCCCn3c4ccccc4c(=N)c4c(C)cc(C)nc43)c2n1
active: CC50 [20] 20.4 µM | IC50 [21] 4.83 µM | IC50 [23] 2.4 µM | CC50 [24] 5.65 µM | IC50 [26] 26.3 µM | AC50 [27] < 0.364 µM
inactive: IC50 [22] 29 µM | IC50 [25] > 66.6 µM
